Source: PubChem BioAssay (NCI)
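Compound exposure: 48 hours, 5 concentrations, 96-well plates. TGI: concentration producing complete growth inhibition.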

What was measured:
Experiment in all cases: DTP human tumour cell line panel, 48 h
[1] = system: SK-MEL-2 melanoma
[2] = system: NCI-H522 lung
[3] = system: T-47D breast
[4] = system: UACC-62 melanoma
[5] = system: UO-31 renal
[6] = system: HL-60(TB) leukemia
[7] = system: RXF 393 renal
[8] = system: SNB-19 CNS
[9] = system: OVCAR-4 ovarian
[10] = system: HOP-92 NSCLC
[11] = system: MOLT-4 leukemia
[12] = system: NCI-H460 lung
[13] = system: SK-MEL-28 melanoma
[14] = system: SF-539 CNS
[15] = system: SF-268 CNS
[16] = system: BT-549 breast
[17] = system: HCC-2998 colon

Compound | TGI [1] | TGI [2] | TGI [3] | TGI [4] | TGI [5] | TGI [6] | TGI [7] | TGI [8] | TGI [9] | TGI [10] | TGI [11] | TGI [12] | TGI [13] | TGI [14] | TGI [15] | TGI [16] | TGI [17]
COC(=O)c1nn2ccc3ccccc3c2c1C(=O)OC | > 100 µM | > 100 µM | > 100 µM | > 100 µM | > 100 µM | > 100 µM | > 100 µM | > 100 µM | > 100 µM | > 100 µM | > 100 µM | > 100 µM | > 100 µM | > 100 µM | > 100 µM | > 100 µM | –
CC(C)CCC[C@@H](C)C1CCC2[C@@H]3CCC4C[C@@H](NS(C)(=O)=O)CC[C@]4(C)C3CC[C@@]21C (stereo not given in full) | > 100 µM | > 100 µM | > 100 µM | > 100 µM | > 100 µM | > 100 µM | > 100 µM | > 100 µM | > 100 µM | – | > 100 µM | > 100 µM | > 100 µM | > 100 µM | > 100 µM | > 100 µM | –
COc1cc(C(c2cccc3ccccc23)N2C(=O)CCC2C(=O)O)cc(OC)c1OC (stereo not given) | > 100 µM | > 100 µM | > 100 µM | > 100 µM | > 100 µM | > 100 µM | > 100 µM | > 100 µM | > 100 µM | > 100 µM | > 100 µM | > 100 µM | > 100 µM | > 100 µM | > 100 µM | > 100 µM | –
CCOC(=O)c1nc2ccc(C(F)(F)F)cc2nc1Nc1ccc(F)cc1 | > 100 µM | > 100 µM | > 100 µM | > 100 µM | > 100 µM | > 100 µM | > 100 µM | > 100 µM | > 100 µM | 98.9 µM | > 100 µM | > 100 µM | > 100 µM | > 100 µM | > 100 µM | > 100 µM | –
COC(=O)n1c(C)c(C=O)c2ccc(OC)cc21 | > 100 µM | > 100 µM | > 100 µM | 57.1 µM | > 100 µM | > 100 µM | > 100 µM | > 100 µM | > 100 µM | – | > 100 µM | > 100 µM | – | 55.2 µM | – | 73.2 µM | 55.8 µM
CCN(CC)CCCNc1ccc([N+](=O)[O-])c2nc3ccc(OC)cc3c(N)c12 | > 10 µM | 4.69 µM | > 10 µM | > 10 µM | > 10 µM | 4.03 µM | > 10 µM | > 6.29 µM | 4.41 µM | > 10 µM | 3.86 µM | 3.32 µM | > 10 µM | 3.46 µM | 3.57 µM | 2.9 µM | –
CCO/C(O)=C(/C(=N)N1CCCC1)C(=O)Nc1cccc(Cl)c1 | > 100 µM | > 100 µM | > 100 µM | > 100 µM | – | > 100 µM | > 100 µM | > 100 µM | > 100 µM | – | > 100 µM | > 100 µM | > 100 µM | > 100 µM | > 100 µM | > 100 µM | > 100 µM
N#Cc1ncn(CCO)c1N | > 100 µM | > 100 µM | > 100 µM | > 100 µM | > 100 µM | > 100 µM | – | > 100 µM | > 100 µM | – | > 100 µM | > 100 µM | > 100 µM | > 100 µM | > 100 µM | > 100 µM | > 100 µM
CCOC(=O)CCC(NC(=O)C(N)c1ccc([N+](=O)[O-])cc1)C(=O)NC(CCC(=O)OCC)C(=O)OCC (stereo not given) | > 100 µM | – | > 100 µM | > 100 µM | > 100 µM | > 100 µM | – | > 100 µM | – | > 100 µM | > 100 µM | > 100 µM | > 100 µM | – | – | > 100 µM | > 100 µM
N/C(=N\N=C\c1cc(I)cc(I)c1O)NO | > 100 µM | > 100 µM | > 100 µM | 95.5 µM | – | 35.4 µM | > 100 µM | > 100 µM | > 100 µM | – | > 100 µM | > 100 µM | > 100 µM | 75.6 µM | > 100 µM | > 100 µM | > 100 µM
CC(=O)Oc1c(OC(C)C)c(C)c(O[Si](C(C)C)(C(C)C)C(C)C)c2[nH]c3ccccc3c12 | > 100 µM | > 100 µM | > 100 µM | > 100 µM | > 100 µM | 8.43 µM | > 100 µM | > 100 µM | > 100 µM | > 100 µM | > 24.2 µM | > 100 µM | > 100 µM | > 100 µM | > 100 µM | > 100 µM | –
CCOC(=O)c1nc2ccccc2nc1Oc1ccc(C#N)cc1 | > 100 µM | – | > 100 µM | > 100 µM | > 100 µM | > 100 µM | > 100 µM | > 100 µM | > 100 µM | > 100 µM | > 100 µM | > 100 µM | > 100 µM | > 100 µM | > 100 µM | > 100 µM | –
CC(C)CC1c2[nH]c3ccccc3c2C[C@H]2C(=O)NC(CCCCNC(=O)OC(C)(C)C)C(=O)N12 (stereo not given in full) | 46.8 µM | 72.3 µM | 16.1 µM | > 100 µM | > 100 µM | 46.9 µM | 27.3 µM | > 100 µM | > 100 µM | 89.8 µM | 51.8 µM | – | > 100 µM | – | > 100 µM | 95.5 µM | –
